The record followed here is patent publication US12134788B2, “Engineered prephenate dehydrogenases and arogenate dehydrogenases and methods of using the same” (Wisconsin Alumni Research Foundation, priority 2017, dated 2024).

Experiment [1] has as its target T1, Glycine max GmPDH1 variant N222D, SEQ ID NO: 2 (Glycine max, UniProt I1MYY4, N222D).
T1 sequence (I1MYY4 1-271 N222D): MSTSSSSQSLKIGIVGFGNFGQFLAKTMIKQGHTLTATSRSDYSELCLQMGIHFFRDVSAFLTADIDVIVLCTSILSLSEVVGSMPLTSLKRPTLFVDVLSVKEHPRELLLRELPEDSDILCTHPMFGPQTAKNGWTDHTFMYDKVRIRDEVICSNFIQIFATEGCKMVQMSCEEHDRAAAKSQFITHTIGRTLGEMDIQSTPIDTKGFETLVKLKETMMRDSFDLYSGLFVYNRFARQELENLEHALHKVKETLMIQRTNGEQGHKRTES
In words: ADH and PDH assay: steady-state kinetics and Tyr inhibition, GmPDH1 N222D. The class given is biochemical, Glycine max (soybean). To be noted: versus wild-type GmPDH1. As for the experimental part: (§1) Kinetic parameters of purified recombinant proteins were determined from assays conducted at varying arogenate (19.5 μM-5 mM) and prephenate concentration (23.4 μM-6 mM). Standard assay conditions were 25 mM HEPES pH 7.6, 50 mM KCl and 10% (v/v) ethylene glycol, and 0.5 mM NADP^+ with varied substrate, concentrations. Reactions were initiated by addition of enzyme and incubated at 37° C. monitored every 10-15 seconds at […] using a microplate reader (Tecan Genios). Kinetic parameters were determined by fitting initial velocity data to the Michaelis-Menten equation using the Origin software (OriginLab).
(§2) Arogenate was prepared by enzymatic conversion of prephenate (Sigma-Aldrich) as previously reported^56. For Tyr inhibition assays, Tyr was dissolved in a slightly basic solution (0.025 N NaOH) due to solubility issues, thus the concentration of lysis buffer was increased to 500 mM HEPES final concentration to buffer against the changes by addition of Tyr in the reaction. Reactions containing varying amounts of Tyr (10 μM-8 mM) with 0.5 mM NADP^+ and either 1 mM arogenate or 0.8 mM prephenate were monitored as above.

The target in experiment [2] is T2, GmPDH1 (Gm18g02650), soybean (Glycine max) prephenate dehydrogenase, wild type (Glycine max, UniProt I1MYY4).
T2 construct: homodimer
T2 sequence (I1MYY4 1-271): T1 sequence (I1MYY4 1-271 N222D) with D222N
In words: ADH and PDH assay: steady-state kinetics and Tyr inhibition, GmPDH1 wild type. The class given is biochemical. As for the experimental part: as §1
(§3) Arogenate was prepared by enzymatic conversion of prephenate (Sigma-Aldrich) as previously reported^56. For Tyr inhibition assays, Tyr was dissolved in a slightly basic solution (0.025 N NaOH) due to solubility issues, thus the concentration of lysis buffer was increased to 500 mM HEPES final concentration to buffer against the changes by addition of Tyr in the reaction. […]

In experiment [3] the target is T3, Medicago truncatula MtncADH variant D220C, SEQ ID NO: 10 (Medicago truncatula, UniProt A0A217FAR3, D220C).
T3 construct: D220C by site-directed mutagenesis
T3 sequence (A0A217FAR3 1-266 D220C): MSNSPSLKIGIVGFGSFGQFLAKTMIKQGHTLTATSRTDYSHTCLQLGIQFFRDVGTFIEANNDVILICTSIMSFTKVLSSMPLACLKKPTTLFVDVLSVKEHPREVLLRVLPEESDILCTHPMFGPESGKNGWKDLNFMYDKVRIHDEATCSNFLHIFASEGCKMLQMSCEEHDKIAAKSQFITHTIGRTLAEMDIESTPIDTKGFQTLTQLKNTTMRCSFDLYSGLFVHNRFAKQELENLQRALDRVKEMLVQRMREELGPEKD
The experiment can be described thus: ADH and PDH assay: steady-state kinetics and Tyr inhibition, MtncADH D220C. To be noted: kcat/Km. It is filed as biochemical. As for the experimental part:
as §1, §2

In experiment [4] the target is T4, Medicago truncatula MtPDH variant C220D, SEQ ID NO: 1 (Medicago truncatula, UniProt A0A0A0R205, C220D).
T4 sequence (A0A0A0R205 1-268 C220D): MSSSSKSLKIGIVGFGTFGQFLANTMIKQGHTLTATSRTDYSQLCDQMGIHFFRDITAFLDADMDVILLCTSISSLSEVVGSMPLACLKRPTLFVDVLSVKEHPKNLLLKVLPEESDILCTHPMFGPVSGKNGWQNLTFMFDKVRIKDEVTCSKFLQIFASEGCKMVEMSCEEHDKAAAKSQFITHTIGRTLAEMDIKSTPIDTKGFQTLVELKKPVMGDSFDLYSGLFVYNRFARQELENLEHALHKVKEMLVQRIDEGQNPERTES
The experiment can be described thus: ADH and PDH assay: steady-state kinetics and Tyr inhibition, MtPDH C220D. The class given is biochemical. The note with it: compared to wild-type MtPDH. The procedure: as §1, §2

The test system of experiment [5] is MhTyrA (MhTyrAp; KUK94425.1), Methanosaeta harundinacea TyrA, wild-type. The experiment can be described thus: Kinetic analysis of MhTyrAp wild-type. It is filed as biochemical. The note with it: NADP+ cofactor. The procedure: (§4) FIGS. 14A-14B show a kinetic analysis of MhTyrAp wild-type and Q227E mutant enzymes. Kinetic analysis was performed with MhTyrAp wild-type (filled circle) and Q227E mutant (open square) enzymes using various concentrations of prephenate (FIG. 14A) and arogenate (FIG. 14B). Initial velocity values at each substrate concentration were fit to the Michaelis-Menten equation using Origin software. Kinetic analyses were conducted for MhTyrA wild-type using 3.41 μg of purified recombinant enzyme, and 4.56 μg and 2.28 μg of purified recombinant Q227E using prephenate and arogenate, respectively.
(§5) ADH and PDH assays were performed using purified recombinant enzymes for SsTyrA and MhTyrA Wt and Q227E mutant, while the E. coli cell lysate was used for OiTyrA as expression and purification of this enzyme was unsuccessful. Reactions contained 0.8 mM substrate (arogenate or prephenate) and 0.8 mM cofactor (NADP+ or NAD+) together with reaction buffer (25 mM HEPES pH 7.6, 50 mM KCl, 10% (v/v) ethylene glycol). For OiTyrA assays containing cell lysates, reactions were incubated for 45 minutes and analyzed using HPLC as previously reported (Schenck et al., 2015). For pure enzymes, reactions were monitored every 10-15 seconds for reduced cofactor at A340 nm using a microplate reader (Tecan Genios). Kinetic parameters of purified recombinant enzymes were determined from assays containing varying concentrations of arogenate (39.1 μM-5 mM) or prephenate (39.1 μM-5 mM) substrate and monitored 10-15 seconds for reduced cofactor at A340 nm using a microplate reader (Tecan Genios). Kinetic parameters were determined by fitting initial velocity data to the Michaelis-Menten equation using Origin software (OriginLab) from technical replicate assays (n=3). Arogenate substrate was prepared by enzymatic conversion of prephenate (Sigma-Aldrich). All enzyme assays were conducted at a reaction time and protein concentration that were in the linear range and proportional to reaction velocity.

For experiment [6], the target named is T5, MtPDH (MtPDH1; Mt3g071980), Medicago truncatula prephenate dehydrogenase, wild type (Medicago truncatula, UniProt A0A0A0R205).
T5 sequence (A0A0A0R205 1-268): T4 sequence (A0A0A0R205 1-268 C220D) with D220C
The experiment can be described thus: ADH and PDH assay: steady-state kinetics and Tyr inhibition, MtPDH wild type. The class given is biochemical. To be noted: preference for prephenate. The procedure: as §1, §3

For experiment [7], the system named is Methanosaeta harundinacea MhTyrAp variant Q227E. In words: Kinetic analysis of MhTyrAp Q227E mutant. It is filed as biochemical. The procedure: as §4, §5
Experiment [8] has as its system Peanut PDH/ADH (AipaensisVYE8T), Arachis ipaensis, wild type. In words: ADH and PDH assay: steady-state kinetics and Tyr inhibition, peanut PDH/ADH. The class given is biochemical. The procedure: as §1, §2
Experiment [9] in a line: Tyr inhibition assay of ADH activity (arogenate substrate). The note with it: Tyr up to 8 mM. It is filed as biochemical. As for the experimental part: as §2
A short description of experiment [10]: PDH assay: steady-state kinetics of purified recombinant plant enzymes with prephenate. To be noted: prephenate versus arogenate, NADP+ cofactor. The class given is biochemical.
Text: As used herein, a polypeptide may “have greater arogenate dehydrogenase activity than prephenate dehydrogenase activity” or “have greater prephenate dehydrogenase activity than arogenate dehydrogenase activity” when the steady-state kinetic parameters (kcat/Km (mM^−1s^−1)) for arogenate dehydrogenase activity are greater than the steady-state parameters (kcat/Km (mM^−1s^−1)) for prephenate dehydrogenase activity or when the steady-state kinetic parameters (kcat/Km (mM^−1s^−1)) for prephenate dehydrogenase activity are greater than the steady-state parameters (kcat/Km (mM^−1s^−1)) for arogenate dehydrogenase activity. Steady-state kinetic parameters may be measured using techniques similar to those described by the inventors in the Examples. Briefly, kinetic parameters of purified polypeptides can be determined from assays conducted at varying arogenate and prephenate concentrations. Standard assay conditions include 25 mM HEPES pH 7.6, 50 mM KCl and 10% (v/v) ethylene glycol, and 0.5 mM NADP^+ with varied substrate, concentrations. Reactions can be initiated by the addition of the polypeptide and incubated at 37° C. monitored every 10-15 seconds at A340nm using a microplate reader. Kinetic parameters may be determined by fitting initial velocity data to the Michaelis-Menten equation using the Origin software.
as §1

Numbering of substitutions follows the chain as printed. Names may count otherwise. “And” between values parts separate entries of the source, which are not always exact repeats. Equal values may be shown once. Read-outs that look alike come from different tables or passages of the source.

The term kcat denotes the number of substrate molecules converted per active site and unit of time at saturation. What is called Km is the substrate concentration at which the rate is half of its maximum. One may read the kcat/Km as the second-order rate constant that governs catalysis at low substrate concentration. Take `O=C(O)C(=O)CC1(C(=O)O)C=CC(O)C=C1` (centres unmarked) [prephenate]: the “fold reduction in kcat/Km with prephenate” value in [1] came out at 115 fold. The kcat was 30.4 s⁻¹ in experiment [2] (0.5 mM NADP^+, pH 7.6, 37° C.); 2.4 s⁻¹ and 2.44 ± 0.38 s⁻¹ in experiment [5] (pH 7.6); 0.285 ± 0.17 s⁻¹ in experiment [7] (NADP+ cofactor, pH 7.6); 2.8 ± 0.2 s⁻¹ in experiment [8] (0.5 mM NADP^+, pH 7.6, 37° C.). For the same molecule, the “fold higher kcat/Km, prephenate versus arogenate” value was determined as 139 fold in [2] (preference for prephenate) and 21 fold in experiment [6]. Also, the “fold preference for prephenate over arogenate” value in experiment [3] came out at 1.7 fold. For the same molecule, the “fold higher Km” value in experiment [4] turned out to be 31 fold. The Km was 378 µM in experiment [5]; 378 ± 20 µM in [5] (pH 7.6); 2700 µM and 2670 µM in [7] (NADP+ cofactor, pH 7.6, read-out: Km); 2400 µM in [7] (read-out: Km for prephenate); 190 ± 10 µM in experiment [8] (0.5 mM NADP^+, pH 7.6, 37° C.). Further, the catalytic efficiency (kcat/Km) in experiment [5] (pH 7.6) is 6400 M⁻¹ s⁻¹ and 6440 ± 20 M⁻¹ s⁻¹; in [7] (NADP+ cofactor, pH 7.6), 100 M⁻¹ s⁻¹ and 107 ± 10 M⁻¹ s⁻¹; in [8] (0.5 mM NADP^+, pH 7.6, 37° C.), 14,740 M^−1 s^−1; in experiment [8] (FIG. 7A, with NADP^+), 14.9 mM⁻¹ s⁻¹. Moreover, in experiment [7] (versus wild-type), the “fold increase in Km for prephenate” value is recorded as approximately 10 fold. Also, the “fold reduction of catalytic efficiency (kcat/Km)” value in experiment [7] (versus wild-type) amounted to 60 fold.

B1: AtADH2 D241N: site-directed mutant of Arabidopsis canonical ADH, Asp241 to Asn (protein)
chain: MLLHFSPAKPLISPPNLRRNSPTFLISPPRSLRIRAIDAAQIFDYETQLKSEYRKSSALKIAVLGFGNFGQFLSKTLIRHGHDLITHSRSDYSDAANSIGARFFDNPHDLCEQHPDVVLLCTSILSTESVLRSFPFQRLRRSTLFVDVLSVKEFPKALFIKYLPKEFDILCTHPMFGPESGKHSWSGLPFVYDKVRIGDAASRQERCEKFLRIFENEGCKMVEMSCEKHDYYAAGSQFVTHTMGRVLEKYGVESSPINTKGYETLLDLVENTSSNSFELFYGLFMYNPNALEQLERLDMAFESVKKELFGRLHQQYRKQMFGGEVQSPKKTEQKLLNDGGVVPMNDISSSSSSSSSSS
modifications: Synthetic: AtADH2 D241N
notes: site-directed mutant of Arabidopsis canonical ADH, Asp241 to Asn
Take B1: in experiment [9], the “feedback inhibition by Tyr (in words)” value is on record as “significantly less sensitive to Tyr inhibition than the respective wild-type enzymes”. Besides, in experiment [10], the “substrate specificity: PDH versus ADH activity (in words)” value was “gained PDH activity at the expense of ADH activity”.

B2: MtncADH D220C: site-directed mutant of M. truncatula noncanonical ADH, Asp220 to Cys (protein)
chain: T3 sequence (A0A217FAR3 1-266 D220C)
modifications: Synthetic: MtncADH D220C
notes: site-directed mutant of M. truncatula noncanonical ADH, Asp220 to Cys
Take B2: the “feedback inhibition by Tyr (in words)” value in experiment [9] was “significantly less sensitive to Tyr inhibition than the respective wild-type enzymes”. In addition, in experiment [10], the “substrate specificity: PDH versus ADH activity (in words)” value is “reduced ADH activity and enhanced PDH activity”.

B3: GmncADH: noncanonical arogenate dehydrogenase from soybean, wild-type (protein)
chain: MSTWSLKIGVVGFGSFGQFLAKTMIKQGHTLRATSRTDYSLLCLPMGIQFFRDVAAFLEADNDVILVCTSILSLSEVLSSMPLTCLKRSTLFVDVLSVKEHPRNLLIKVLPEESDILCTHPMFGPDSGKDGWQDLTFVYDKVRIRDEAICSSFLHIFASEGCRMLQMSCEEHDKIAAKSQFITHTIGRTLAEMDIKSTPIDTKGFHSLVQLKDTTIRDSFDLYSGLFLHNRFAVQELENLEHALHKVKEMLVQRKSEELGLEKTEC
modifications: GmncADH WT
notes: noncanonical arogenate dehydrogenase from soybean, wild-type
B3: the “feedback inhibition by Tyr (in words)” value in [9] was “sensitive to Tyr but with IC50 values in the mM range”. In experiment [10], the “substrate specificity: PDH versus ADH activity (in words)” value is on record as “only displayed activity with arogenate”.
